Laboratory results from US20210330611A1, “THERAPY FOR NEUROLOGICAL DISEASES/DISORDERS” (priority 2020, published 2021).
Where a name gives a salt, the structure may show the parent alone. Read-outs that look alike come from different tables or passages of the source.

Assays:
primary rat microglia [1] = assay: Cell toxicity (dead cells, size <150 μm2) in LPS assay; conditions: for LPS % cell toxicity: primary microglia HTS, LPS stimulation; for IC50: read-out: Cell Toxicity IC50 (uM) [LPS assay], LPS assay
primary rat microglia [2] = assay: Cell toxicity (dead cells, size <150 μm2) in coated fibrin (cFib) assay; conditions: primary microglia HTS, fibrin stimulation;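 for Fibrin % cell toxicity: share of dead cells sized under 150 µm2 at 10 µM in fibrin-stimulated microglia HTS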
in vitro [3] = conditions: rat
[4] = test system: LPS-induced microglia activation; assay: Image-based assay of LPS-induced microglia activation (HTS and dose response); assay type: cell-based, rat; conditions: Rattus norvegicus, Microglia; for inhibition at 10 µM: primary microglia HTS, LPS stimulation, read-out: LPS % inhibition
in vitro [5] = conditions: rat, Cell Toxicity IC50 (uM) [cFib assay]
[6] = test system: fibrin- and LPS-induced microglia activation; assay: cells; assay type: cell-based, rat; conditions: for inhibition at 10 µM: Rattus norvegicus
[7] = test system: fibrin-induced microglia activation; assay: Image-based assay of fibrin-induced microglia activation (HTS and dose response); assay type: cell-based, rat; conditions: for IC50 / inhibition at 10 µM: Rattus norvegicus, Microglia; for inhibition at 10 µM: primary microglia HTS, fibrin stimulation, read-out: Fibrin % inhibition
[8] = decreased size (<150 μm^2) as marker of toxicity
[9] = 48 h, increased cell size (>800 μm^2) as marker of activation
[10] = HTS of 1907 compounds, quadrant by fibrin and LPS inhibition
[11] = Microglia, Table 3, read-out: Cherry-picked Hit (Suppl. Table 7)
[12] = Microglia, HTS hit classification, read-out: Hit
[13] = quadrant by fibrin and LPS inhibition in HTS of 1907 compounds
[14] = 48 h, Table 1, dose response 0.001-20 μM, triplicates, primary rat microglia, 48 h, read-out: Fibrin IC50
[15] = Table 3, read-out: Fibrin IC50 (uM) (Suppl. Table 7)
[16] = dose response, fibrin-induced microglia activation, read-out: Fibrin IC50
[17] = fibrin-induced microglia activation, dose response, read-out: Fibrin IC50 (uM) (Suppl. Table 7)
[18] = increased cell size (>800 μm^2) as marker of activation
[19] = 48 h, Table 1, dose response 0.001-20 μM, triplicates, primary rat microglia, 48 h, read-out: LPS IC50
[20] = LPS-induced microglia activation, dose response, read-out: LPS IC50 (uM) (Suppl. Table 7)
[21] = Table 3, read-out: LPS IC50 (uM) (Suppl. Table 7)
[22] = dose response, LPS-induced microglia activation, read-out: LPS IC50
[23] = hit classification in microglia HTS, read-out: Cherry-picked Hit (Suppl. Table 7)

Compound | LPS % cell toxicity (primary rat microglia [1]; [8]) [%] | IC50 (primary rat microglia [1]) [µM] | Fibrin % cell toxicity (primary rat microglia [2]; [8]) [%] | IC50 (in vitro [3]) [µM] | inhibition at 10 µM [4, 9] [%] | IC50 (in vitro [5]; Table 3) [µM] | IC50 (in vitro [5]; cFib assay) [µM] | Quadrant (FIG. 5b) [6, 10] | inhibition at 10 µM [6, 11] [%] | inhibition at 10 µM [6, 12] [%] | Quadrant (FIG. 5b) ([6]; Table 1, screen at 10 μM) | Quadrant (FIG. 5b) [6, 13] | IC50 [7, 14] [µM] | IC50 [7, 16] [µM] | IC50 [7, 17] [µM] | inhibition at 10 µM [7, 18] [%] | IC50 [4, 19] [µM] | IC50 [4, 20] [µM] | IC50 [4, 22] [µM] | inhibition at 10 µM [6, 23] [%] | also measured
Cc1cccc(N(C)C(=S)Oc2ccc3ccccc3c2)c1 [Tolnaftate, reference compound] | 1 | > 20 | 1 | > 20 | 60 | > 20 | > 20 | Q2 | > 50 | > 50 | Q2 | Q2 | 2 | 2 | 2 | 76 |  |  |  |  | Quadrant (FIG. 5b) ([6]; Table 3, screen at 10 μM): Q2; IC50 [7, 15]: 2 µM
Cc1cc(NC(=O)C2=C(O)c3ccccc3S(=O)(=O)N2C)no1 [Isoxicam, reference compound] | 1 | > 20 | 1 | > 20 | 30 | > 20 | > 20 | Q3 | > 50 | > 50 | Q3 | Q3 | 7 | 7 | 7 | 67 | > 20 | > 20 | > 20 |  | IC50 [4, 21]: > 20 µM; Quadrant (FIG. 5b) ([6]; Table 3, screen at 10 μM): Q3; Fibrin Selectivity [7]: 3; Fibrin Selectivity (LOG10) [7]: 0.43; IC50 [7, 15]: 7 µM
Clc1ccc(C(OCCN2CCCCC2)c2ccccc2)cc1 (centres unmarked) [Cloperastine hydrochloride, reference compound] | 0 |  | 2 | > 20 | 44 |  | > 20 | Q3 |  | > 50 | Q3 | Q3 | 7 | 7 | 7 | 64 | 9 | 9 | 9 | > 50 | 
CC1(C)O[C@@H]2C[C@H]3[C@@H]4C[C@H](F)C5=CC(=O)C=C[C@]5(C)[C@@]4(F)[C@@H](O)C[C@]3(C)[C@]2(C(=O)CO)O1 [Fluocinolone acetonide, reference compound] | 4 |  | 2 | > 20 | 104 |  | > 20 | Q2 |  | > 50 | Q2 |  | < 0.001 | < 0.001 | < 0.001 | 105 | < 0.001 | < 0.001 | < 0.001 | > 50 | LPS % cell toxicity (primary rat microglia [1]; toxicity = cell size <150 μm2): 0%; Fibrin % cell toxicity (primary rat microglia [2]; toxicity = cell size <150 μm2): 1%; inhibition at 10 µM ([4]; 48 h, activation = cell size >800 μm2): 10%; IC50 ([4]; Table 7, read-out: LPS_IC50): 0.002 µM; Quadrant (FIG. 5b) ([6]; Table 2, screen at 10 μM): Q2; Activity ([6]; Table 7, fib = fibrin, LPS, tox = toxicity): fib/LPS; IC50 ([7]; Table 7, read-out: fib_IC50): 0.002 µM; inhibition at 10 µM ([7]; activation = cell size >800 μm2): -35%
O=P(O)(O)C(O)(Cc1cccnc1)P(=O)(O)O [Risedronate sodium, reference compound] | 0 |  | 2 | > 20 | 16 |  | > 20 | Q3 |  | > 50 | Q3 | Q3 | 19 | 19 | 19 | 81 | > 20 | > 20 | > 20 | > 50 | 
COc1c(C)c2c(c(O)c1C/C=C(\C)CCC(=O)OCCN1CCOCC1)C(=O)OC2 [Mycophenolate mofetil, reference compound] | 2 |  | 2 | > 20 | 79 |  | > 20 | Q2 |  | > 50 | Q2 | Q2 | 2 | 2 | 2 | 94 | 1 | 1 | 1 | > 50 | 
CC(CCc1ccc(O)cc1)NCC(O)c1ccc(O)cc1 (centres unmarked) [Ractopamine hydrochloride, reference compound] | 0 |  | 1 | > 20 | 39 |  | > 20 | Q3 |  | > 50 | Q3 | Q3 | 20 | 20 | 20 | 50 | > 20 | > 20 | > 20 | > 50 | 
CC(=O)O[C@]1(C(C)=O)CC[C@H]2[C@@H]3C=C(Cl)C4=CC(=O)CC[C@]4(C)[C@H]3CC[C@@]21C [Chlormadinone acetate, reference compound] | 0 |  | 1 | > 20 | 43 |  | > 20 | Q3 |  | > 50 | Q3 | Q3 |  |  |  | 72 | > 20 | > 20 | > 20 | > 50 | 
CC(=O)O[C@H]1C[C@@]2(C)[C@@H](C[C@@H](O)[C@H]3[C@@]4(C)CC[C@@H](O)[C@@H](C)[C@@H]4CC[C@@]32C)/C1=C(\CCC=C(C)C)C(=O)O [Fusidic acid, reference compound] | 2 |  | 1 | > 20 | 74 |  | > 20 | Q2 |  | > 50 | Q2 | Q2 | 19 | 19 | 19 | 77 | > 20 | > 20 | > 20 | > 50 | 
CC[C@@]1(O)C(=O)OCc2c1cc1n(c2=O)Cc2cc3c([N+](=O)[O-])cccc3nc2-1 [Rubitecan, reference compound] |  | > 20 |  | > 20 | 30 | > 20 | > 20 | Q3 | > 50 | > 50 | Q3 | Q3 | 2 | 2 | 2 | 73 | 9 | 9 | 9 |  | IC50 [4, 21]: 9 µM; Quadrant (FIG. 5b) ([6]; Table 3, screen at 10 μM): Q3; IC50 [7, 15]: 2 µM
